Laboratory results reported in US12616704B2, “Cannabichromene formulation for pain management” (Zyus Life Sciences Inc., priority 2020, dated 2026).

How the values were obtained:
[1] = molecular target: CB1 receptors (Homo sapiens, UniProt P21554); settings: cited from earlier work
[2] = test system: Oxaliplatin-induced cool allodynia; assay: Acetone Cooling Test (ACT) in oxaliplatin-induced polyneuropathy (OIPN) model; type: in vivo, C57BL/6J mice; settings: CBC 20 mg/kg p.o.
Procedure: Model Induction—Mouse Oxaliplatin-induced polyneuropathy (OIPN) model was induced over a three-week period. The day of first Oxaliplatin (OXP) injection is referred to as day 0 (DO). OXP was administered as six separate intraperitoneal injections at 4.5-mg/kg (10 ml/kg, i.p.) to Groups 2, 3, and 4 on DO, D4, D8, D12, D16, and D20. The cumulative OXP dose was thus 27 mg/kg. The in-life procedures, such as observations, tests, and/or measurements were performed by Charles River Discovery Services with blinded methods. The mice were distributed into 4 groups (n=8 for Vehicle Control; n=10 OXP Control; n=20 CBC; n=15 Duloxetine).
Treatments—Following exposure to OXP for 20 days, Groups 3 and 4 were treated with CBC (20 mg/kg, p.o.) and Duloxetine (25 mg/kg, i.p.), respectively, for 10 consecutive days. In a similar regimen Groups 1 and 2 (Vehicle Control and OXP-Vehicle Control, respectively) received a corresponding volume of 5% glucose solution at an administration volume of 10 mL/kg.
Acetone Cooling Test (ACT) —To produce a measurable cooling sensation, 10-15 μL of acetone was applied onto the medial area of the plantar hind paw with a 0.5 ml insulin syringe. Responses of a mouse to acetone were monitored for 20 s, and a score given based on a four-point scale (0-3 points), according to the response intensity, continuation, and briskness. The higher the score, the greater the cool allodynia sensed by the mouse.
Within one test timepoint, a total of 3 trials were performed per paw with a minimum gap of 5 min between testing. The three individual scores were added up to obtain a single score over a cumulative period of 60 s. Thus, for one test, the minimum score of one paw is 0 (no cool allodynia), while the maximum possible score is 9 (intensive cool allodynia). The total scores for the left and right paws were averaged to accomplish a single result value per mouse at each timepoint.
The Acetone Cooling Test was performed prior to OXP administration (Baseline), following the last OXP injection (D21), one day after the first CBC, Duloxetine, or Vehicle treatment (D22), and after a 10-day daily dosing of CBC, Duloxetine, or Vehicle treatment (D31). Taken together, the ACT was used to assess chemotherapy-induce cool allodynia as stated in the schedule:
On D22: At 60 min after the first Vehicle/CBC dose and 120 min after Dulx dose.
On D31: At 60 min after the last Vehicle/CBC and 120 min after Dulx dose.

[3] = molecular target: CB2 receptors (Homo sapiens, UniProt P34972); settings: read-out: affinity (Ki) for CB2 receptors; cited from earlier work
Chain of CB2 receptors (P34972 whole entry): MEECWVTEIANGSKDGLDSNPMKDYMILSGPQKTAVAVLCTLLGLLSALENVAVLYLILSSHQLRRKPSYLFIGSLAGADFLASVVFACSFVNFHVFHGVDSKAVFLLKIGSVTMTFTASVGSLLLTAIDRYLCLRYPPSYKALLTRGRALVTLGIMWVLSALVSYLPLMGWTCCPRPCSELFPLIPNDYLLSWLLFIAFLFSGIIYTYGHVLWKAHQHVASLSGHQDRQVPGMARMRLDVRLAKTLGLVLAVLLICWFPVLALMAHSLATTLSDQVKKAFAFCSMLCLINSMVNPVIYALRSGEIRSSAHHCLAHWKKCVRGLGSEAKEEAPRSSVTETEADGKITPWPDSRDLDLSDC

Chain of CB1 receptors (P21554 whole entry): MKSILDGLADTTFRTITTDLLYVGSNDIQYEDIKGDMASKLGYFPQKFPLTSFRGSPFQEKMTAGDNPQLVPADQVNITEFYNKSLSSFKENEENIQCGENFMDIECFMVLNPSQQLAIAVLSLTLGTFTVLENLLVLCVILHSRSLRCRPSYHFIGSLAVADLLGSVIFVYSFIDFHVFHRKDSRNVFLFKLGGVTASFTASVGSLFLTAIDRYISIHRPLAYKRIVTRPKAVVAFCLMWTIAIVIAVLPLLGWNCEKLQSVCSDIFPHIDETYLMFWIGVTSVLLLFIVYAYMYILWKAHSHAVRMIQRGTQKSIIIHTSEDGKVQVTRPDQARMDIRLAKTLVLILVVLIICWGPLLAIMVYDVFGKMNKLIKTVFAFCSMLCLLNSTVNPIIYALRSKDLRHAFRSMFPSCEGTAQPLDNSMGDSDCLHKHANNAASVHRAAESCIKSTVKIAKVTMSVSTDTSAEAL

In the case of `CCCCCc1cc(O)c2c(c1)OC(C)(CCC=C(C)C)C=C2` (stereo not shown) [CBC, cannabichromene], the “binds to CB1 receptors only at concentrations higher than” value [1] is listed as “higher than 1 micromolar”, the “ACT score compared with OXP-Vehicle control” value ([2]; D22, acute single dose, Duloxetine 25 mg/kg i.p.) is listed as “statistically significant and comparable reduction in cool allodynia” and the “ACT score compared with OXP-Vehicle control” value ([2]; D31, chronic repeated dosing, Duloxetine 25 mg/kg i.p.) is listed as “qualitative but not statistically significant reduction”. The “ACT score compared with OXP-Vehicle control: p” value ([2]; D31, chronic repeated dosing, Mann-Whitney test) was 0.06, the “ACT score, D31 vs. D21” value ([2]; within group, 10-day repeated dosing, Duloxetine 25 mg/kg i.p.) was “significant reversion of cool allodynia” and the “ACT score, reversion of cool allodynia D22 vs. D21 pre-treatment: p” value ([2]; within group, single dose, Duloxetine 25 mg/kg i.p.) was under 0.001. For the same compound, the Ki [3] was about 100 nM.
